# Patent US9670142B2, “1,3-diaminocyclopentane carboxamide derivatives” (Merck Patent GmbH, priority 2013, dated 2017)
# Molecular target: human fatty acid synthase FASN (Homo sapiens (Human), UniProt P49327)
# Test: Biochemical activity testing of human fatty acid synthase FASN (NADPH fluorescence intensity enzyme assay)
# Details: human recombinant full-length fatty acid synthase
# Excerpt: Biochemical activity testing of human fatty acid synthase FASN
# Fatty acid synthase FASN is a multifunctional enzyme with seven catalytic activities thereby synthesising long chain fatty acids especially palmitoyl-CoA in the presence of co-factor NADPH starting from the substrates acetyl-CoA and malonyl-CoA. The reductive synthesis is realized by the oxidation of NADPH to NADP. Since NADPH has a high fluorescence intensity quantum yield compared to NADP with excitation at 340 nm and emission at 460 nm, the reaction can be monitored via the decrease in fluorescence intensity. The biochemical FASN activity testing was performed as 384 well two-time-point kinetic fluorescence intensity assay format in Greiner low volume medium binding 384-well black microtiter plates in a total assay volume of 8 μl and was used for high throughput screen. In each well 3 μl 40 nM human recombinant full-length fatty acid synthase (produced in-house in SF9 cells) were dispensed in the following assay buffer: 50 mM potassium phosphate buffer pH 7.0, 0.005% (w/v) BSA, 2 mM Glutathione, 0.02% Tween-20. Then 2 μl of 200 μM NADPH in assay buffer were added, followed by the addition of the test compounds in 10 dilution concentrations starting with 30 μM (final concentration) to get a final DMSO content of 1% (v/v). The mixture was incubated for at least 15 min at room temperature. After the pre-incubation the enzymatic reaction was started by the addition of 2 μl substrate solution (80 μM acetyl-CoA, 240 μM malonyl-CoA). A first fluorescence intensity measurement (time point one) was performed with an Envision multimode reader (Perkin Elmer LAS Germany GmbH) at excitation wavelength 340 nm (lamp mode) and emission wavelength 460 nm. The reaction was incubated for 30 minutes at room temperature. After this the fluorescence intensity was measured again in the Envision using the same parameters as described above (second time point measurement). The data were analysed by subtracting the first time point measurement value from the second time point measurement value (after the enzymatic reaction). The differences of the emission signals were determined. These reflect directly the conversion rate of NADPH. The full value used was the inhibitor-free reaction. A pharmacological zero value was used like GSK837149A (Sigma-Aldrich) in a final concentration of 5-10 μM. The inhibitory values (IC50) were determined using either the program Symyx Assay Explorer® or Condosseo® from GeneData.
# Sequence of human fatty acid synthase FASN (P49327 whole entry): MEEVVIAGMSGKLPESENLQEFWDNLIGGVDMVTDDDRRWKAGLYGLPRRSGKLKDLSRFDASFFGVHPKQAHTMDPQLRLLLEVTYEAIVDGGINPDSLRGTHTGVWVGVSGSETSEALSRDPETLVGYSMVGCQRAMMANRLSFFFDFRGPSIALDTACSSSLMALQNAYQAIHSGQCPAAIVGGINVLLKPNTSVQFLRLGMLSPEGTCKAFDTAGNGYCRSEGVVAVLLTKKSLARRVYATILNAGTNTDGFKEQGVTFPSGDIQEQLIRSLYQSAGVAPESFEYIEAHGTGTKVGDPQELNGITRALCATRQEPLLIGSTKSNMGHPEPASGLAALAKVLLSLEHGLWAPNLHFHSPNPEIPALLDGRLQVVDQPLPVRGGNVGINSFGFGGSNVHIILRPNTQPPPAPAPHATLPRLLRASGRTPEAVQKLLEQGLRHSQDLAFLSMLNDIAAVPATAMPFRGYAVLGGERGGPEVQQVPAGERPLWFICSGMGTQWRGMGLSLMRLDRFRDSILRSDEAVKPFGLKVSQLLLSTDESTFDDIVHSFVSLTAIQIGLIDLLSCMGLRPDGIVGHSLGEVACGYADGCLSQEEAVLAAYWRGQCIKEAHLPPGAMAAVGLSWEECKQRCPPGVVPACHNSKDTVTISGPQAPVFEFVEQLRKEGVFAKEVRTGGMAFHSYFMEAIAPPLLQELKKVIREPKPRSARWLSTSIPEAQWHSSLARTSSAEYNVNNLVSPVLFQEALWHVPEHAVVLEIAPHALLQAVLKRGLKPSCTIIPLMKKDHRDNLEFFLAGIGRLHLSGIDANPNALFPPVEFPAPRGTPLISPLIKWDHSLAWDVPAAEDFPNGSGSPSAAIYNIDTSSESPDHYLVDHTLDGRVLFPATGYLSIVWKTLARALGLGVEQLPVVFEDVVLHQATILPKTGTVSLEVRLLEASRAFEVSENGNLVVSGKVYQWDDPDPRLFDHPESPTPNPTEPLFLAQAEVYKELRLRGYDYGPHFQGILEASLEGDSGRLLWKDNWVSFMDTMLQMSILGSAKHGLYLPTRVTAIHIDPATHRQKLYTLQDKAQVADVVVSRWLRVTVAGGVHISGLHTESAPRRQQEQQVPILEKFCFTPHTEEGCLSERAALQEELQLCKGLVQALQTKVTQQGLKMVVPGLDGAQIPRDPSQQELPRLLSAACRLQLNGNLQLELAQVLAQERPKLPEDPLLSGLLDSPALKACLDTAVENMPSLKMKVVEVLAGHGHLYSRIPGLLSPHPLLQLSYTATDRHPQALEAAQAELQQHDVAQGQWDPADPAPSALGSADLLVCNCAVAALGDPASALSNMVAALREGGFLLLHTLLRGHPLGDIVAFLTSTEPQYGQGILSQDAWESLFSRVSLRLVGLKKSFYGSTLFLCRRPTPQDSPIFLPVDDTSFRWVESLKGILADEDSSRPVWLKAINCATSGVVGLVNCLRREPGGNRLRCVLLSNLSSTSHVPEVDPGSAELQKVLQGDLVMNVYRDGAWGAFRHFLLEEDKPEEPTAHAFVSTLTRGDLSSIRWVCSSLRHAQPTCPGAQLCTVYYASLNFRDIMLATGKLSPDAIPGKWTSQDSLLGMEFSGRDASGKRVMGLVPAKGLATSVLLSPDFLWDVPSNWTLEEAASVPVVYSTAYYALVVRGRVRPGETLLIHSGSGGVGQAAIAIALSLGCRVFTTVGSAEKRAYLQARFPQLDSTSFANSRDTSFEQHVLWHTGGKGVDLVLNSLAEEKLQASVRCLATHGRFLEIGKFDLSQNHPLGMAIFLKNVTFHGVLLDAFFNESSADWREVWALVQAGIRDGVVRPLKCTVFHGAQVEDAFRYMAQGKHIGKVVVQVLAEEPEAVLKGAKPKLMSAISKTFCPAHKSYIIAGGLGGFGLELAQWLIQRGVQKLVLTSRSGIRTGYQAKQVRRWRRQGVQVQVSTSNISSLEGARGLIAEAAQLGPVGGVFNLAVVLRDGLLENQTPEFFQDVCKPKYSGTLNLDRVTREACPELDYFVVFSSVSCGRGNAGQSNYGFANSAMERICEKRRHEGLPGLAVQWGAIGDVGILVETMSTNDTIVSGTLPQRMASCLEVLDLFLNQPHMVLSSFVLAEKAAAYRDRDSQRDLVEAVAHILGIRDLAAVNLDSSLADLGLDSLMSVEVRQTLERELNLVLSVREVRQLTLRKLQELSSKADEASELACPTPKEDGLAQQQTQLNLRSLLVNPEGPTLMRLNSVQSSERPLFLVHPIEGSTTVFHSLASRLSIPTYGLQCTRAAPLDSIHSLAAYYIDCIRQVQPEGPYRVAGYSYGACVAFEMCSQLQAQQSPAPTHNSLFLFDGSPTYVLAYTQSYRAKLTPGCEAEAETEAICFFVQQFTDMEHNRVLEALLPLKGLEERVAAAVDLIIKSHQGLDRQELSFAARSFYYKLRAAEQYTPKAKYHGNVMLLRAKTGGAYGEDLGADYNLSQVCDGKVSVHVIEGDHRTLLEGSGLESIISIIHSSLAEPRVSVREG
row,SMILES,IC50
1,"CCC(=O)N[C@H]1CC[C@@H](N(C)C(=O)c2ccc(-c3cc(F)c(C#N)c(F)c3)cc2)C1 [Compound A61, 4′-cyano-3′,5′-difluoro-biphenyl-4-carboxylic acid methyl-((1R,3S)-3-propionylamino-cyclopentyl)-amide]",3000 to 50000 nM
2,"CCC(=O)N[C@H]1CC[C@@H](N(C)C(=O)c2ccc(-c3ccc(OC)cc3C)cc2)C1 [Compound A65, 4′-methoxy-2′-methyl-biphenyl-4-carboxylic acid methyl-((1R,3S)-3-propionylamino-cyclopentyl)-amide]",< 300 nM
3,"CCC(=O)N[C@H]1CC[C@@H](N(C)C(=O)c2ccc(-c3ccc(C)c(F)c3)cc2)C1 [Compound A66, 3′-fluoro-4′-methyl-biphenyl-4-carboxylic acid methyl-((1R,3S)-3-propionylamino-cyclopentyl)-amide]",< 300 nM
4,"CCC(=O)N[C@H]1CC[C@@H](N(C)C(=O)c2ccc(-c3ccc(-n4cccn4)cc3)cc2)C1 [Compound A68, 4′-pyrazol-1-yl-biphenyl-4-carboxylic acid methyl-((1R,3S)-3-propionylamino-cyclopentyl)-amide]",< 300 nM
5,"CCC(=O)N[C@H]1CC[C@@H](N(C)C(=O)c2ccc(-c3ccc(C(=O)OC)c(F)c3)cc2)C1 [Compound A69, 3-fluoro-4′-[methyl-((1R,3S)-3-propionylamino-cyclopentyl)-carbamoyl]-biphenyl-4-carboxylic acid methyl ester]",< 300 nM
6,"CCC(=O)N[C@H]1CC[C@@H](N(C)C(=O)c2ccc(-c3ccc(OCC4CC4)cc3)cc2)C1 [Compound A70, 4′-cyclopropylmethoxy-biphenyl-4-carboxylic acid methyl-((1R,3S)-3-propionylamino-cyclopentyl)-amide]",< 300 nM
7,"CCC(=O)N[C@H]1CC[C@@H](N(C)C(=O)c2ccc(-c3ccc(C#N)c(F)c3)cc2)C1 [Compound A71, 4′-cyano-3′-fluoro-biphenyl-4-carboxylic acid methyl-((1R,3S)-3-propionylamino-cyclopentyl)-amide]",< 300 nM
8,"CCC(=O)N[C@H]1CC[C@@H](N(C)C(=O)c2ccc(-c3ccc(C)cc3)cc2)C1 [Compound A73, 4′-methyl-biphenyl-4-carboxylic acid methyl-((1R,3S)-3-propionylamino-cyclopentyl)-amide]",< 300 nM
9,"CCC(=O)N[C@H]1CC[C@@H](N(C)C(=O)c2ccc(-c3ccc4cnn(C)c4c3)cc2)C1 [Compound A74, N-methyl-4-(1-methyl-1H-indazol-6-yl)-N-((1R,3S)-3-propionylamino-cyclopentyl)-benzamide]",< 300 nM
10,"CCC(=O)N[C@H]1CC[C@@H](N(C)C(=O)c2ccc(-c3ccc4[nH]cnc4c3)cc2)C1 [Compound A76, 4-(1H-benzimidazol-5-yl)-N-methyl-N-((1R,3S)-3-propionylamino-cyclopentyl)-benzamide]",< 300 nM
11,"CCC(=O)N[C@H]1CC[C@@H](N(C)C(=O)c2ccc(-c3ccc(C(=O)NC)cc3)cc2)C1 [Compound A78, biphenyl-4,4′-dicarboxylic acid 4′-methylamide 4-[methyl-((1R,3S)-3-propionylamino-cyclopentyl)-amide]]",< 300 nM
12,"CCC(=O)N[C@H]1CC[C@@H](N(C)C(=O)c2ccc(-c3ccc4c(ccn4C)c3)cc2)C1 [Compound A80, N-methyl-4-(1-methyl-1H-indol-5-yl)-N-((1R,3S)-3-propionylamino-cyclopentyl)-benzamide]",< 300 nM
13,"CCC(=O)N[C@H]1CC[C@@H](N(C)C(=O)c2ccc(-c3ccc(-c4ccn[nH]4)cc3)cc2)C1 [Compound A81, 4′-(2H-pyrazol-3-yl)-biphenyl-4-carboxylic acid methyl-((1R,3S)-3-propionylamino-cyclopentyl)-amide]",< 300 nM
14,"CCC(=O)N[C@H]1CC[C@@H](N(C)C(=O)c2ccc(-c3ccc4[nH]ncc4c3)cc2)C1 [Compound A84, 4-(1H-indazol-5-yl)-N-methyl-N-((1R,3S)-3-propionylamino-cyclopentyl)-benzamide]",< 300 nM
15,"CCC(=O)N[C@H]1CC[C@@H](N(C)C(=O)c2ccc(-c3ccc(Cl)c(F)c3)cc2)C1 [Compound A86, 4′-chloro-3′-fluoro-biphenyl-4-carboxylic acid methyl-((1R,3S)-3-propionylamino-cyclopentyl)-amide]",< 300 nM
16,"CCC(=O)N[C@H]1CC[C@@H](N(C)C(=O)c2ccc(-c3ccc4c(c3)OCCO4)cc2)C1 [Compound A87, 4-(2,3-dihydro-benzo[1,4]dioxin-6-yl)-N-methyl-N-((1R,3S)-3-propionylamino-cyclopentyl)-benzamide]",< 300 nM
17,"CCC(=O)N[C@H]1CC[C@@H](N(C)C(=O)c2ccc(-c3ccc(OC)cc3OC)cc2)C1 [Compound A88, 2′,4′-dimethoxy-biphenyl-4-carboxylic acid methyl-((1R,3S)-3-propionylamino-cyclopentyl)-amide]",< 300 nM

# Next, values leading:
row,IC50,SMILES
1,300 to 3000 nM,"CCC(=O)N[C@H]1CC[C@@H](N(C)C(=O)c2ccc(-c3ccc(OC(F)(F)F)cc3)cc2)C1 [Compound A62, 4′-trifluoromethoxy-biphenyl-4-carboxylic acid methyl-((1R,3S)-3-propionylamino-cyclopentyl)-amide]"
2,< 300 nM,"CCC(=O)N[C@H]1CC[C@@H](N(C)C(=O)c2ccc(-c3ccc(F)c(Cl)c3)cc2)C1 [Compound A63, 3′-chloro-4′-fluoro-biphenyl-4-carboxylic acid methyl-((1R,3S)-3-propionylamino-cyclopentyl)-amide]"
3,< 300 nM,"CCC(=O)N[C@H]1CC[C@@H](N(C)C(=O)c2ccc(-c3ccc(C(F)(F)F)cc3)cc2)C1 [Compound A64, 4′-trifluoromethyl-biphenyl-4-carboxylic acid methyl-((1R,3S)-3-propionylamino-cyclopentyl)-amide]"
4,< 300 nM,"CCC(=O)N[C@H]1CC[C@@H](N(C)C(=O)c2ccc(-c3ccc4cc[nH]c4c3)cc2)C1 [Compound A67, 4-(1H-indol-6-yl)-N-methyl-N-((1R,3S)-3-propionylamino-cyclopentyl)-benzamide]"
5,< 300 nM,"CCC(=O)N[C@H]1CC[C@@H](N(C)C(=O)c2ccc(-c3cnc4ccccc4c3)cc2)C1 [Compound A72, N-methyl-N-((1R,3S)-3-propionylamino-cyclopentyl)-4-quinolin-3-yl-benzamide]"
6,< 300 nM,"CCC(=O)N[C@H]1CC[C@@H](N(C)C(=O)c2ccc(-c3ccc4c(cnn4C)c3)cc2)C1 [Compound A75, N-methyl-4-(1-methyl-1H-indazol-5-yl)-N-((1R,3S)-3-propionylamino-cyclopentyl)-benzamide]"
7,< 300 nM,"CCC(=O)N[C@H]1CC[C@@H](N(C)C(=O)c2ccc(-c3ccc(OC)cc3)cc2)C1 [Compound A82, 4′-methoxy-biphenyl-4-carboxylic acid methyl-((1R,3S)-3-propionylamino-cyclopentyl)-amide]"
8,< 300 nM,"CCC(=O)N[C@H]1CC[C@@H](N(C)C(=O)c2ccc(-c3ccc(F)cc3F)cc2)C1 [Compound A83, 2′,4′-difluoro-biphenyl-4-carboxylic acid methyl-((1R,3S)-3-propionylamino-cyclopentyl)-amide]"
9,< 300 nM,"CCC(=O)N[C@H]1CC[C@@H](N(C)C(=O)c2ccc(-c3ccc(OC(F)F)cc3)cc2)C1 [Compound A85, 4′-difluoromethoxy-biphenyl-4-carboxylic acid methyl-((1R,3S)-3-propionylamino-cyclopentyl)-amide]"
